Measured values reported in patent US20090118253A1, “COMPOSITIONS AND METHODS FOR TREATING DYSFUNCTIONAL UTERINE BLEEDING” (REPROS THERAPEUTICS INC., priority 2007, published 2009).

Tests used:
[1] = Serum corticosterone in rats; conditions: CDB-4124 10 or 20 mg/kg, RU 486 10 mg/kg, progesterone 10 mg/kg
[2] = test system: rabbit progesterone receptor (rbPR) and glucocorticoid receptor (rbGR); test: Receptor-binding assays, ratio of relative binding affinities rbPR/rbGR; conditions: ratio of relative binding affinities (RBA = EC50 of standard/EC50 of test compound x 100) for rbPR and rbGR
Description: Certain antiprogestins were tested in receptor-binding assays for their ability to bind rabbit progesterone receptor (rbPR) and glucocorticoid receptor (rbGR). Briefly, cytosol containing PR or GR were prepared in TEGMD buffer (10 mM Tris, pH 7.2, 1.5 mM EDTA, 0.2 mM sodium molybdate, 10% glycerol, 1 mM DTT) from uterus or thymus, respectively, of estradiol-primed immature rabbits. For PR binding, the cytosol was incubated with 6 nM 1,2-[^3H]progesterone (50.0 Ci/mmole) and competitors were added at concentrations from 2 to 100 nM. For binding to GR, the cytosol was incubated with 6 nM 6,7-[^3H]-dexamethasone (40 Ci/mmol) and test compounds were added at concentrations from 20 to 100 nM. After overnight incubation at 4 C, bound and unbound [^3H] steroids were separated by addition of dextran-coated charcoal and centrifugation at 2100×g for 15 min at 4 C. Supernatants containing the [3H]-steroid receptor complexes were decanted into vials containing 4 ml Optifluor (Packard Instrument Co.), vortexed, equilibrated in a liquid scintillation counter for 30 minutes and then counted for 2 minutes. The EC50 (Effective Concentration) for each standard curve and each of the compound curves was determined by entering the counting data into a four parameter sigmoidal computer program (RiaSmart® Immunoassay Data Reduction Program, Packard Instrument Co., Meriden, Conn.). Relative binding affinity (RBA) for each compound was calculated using the following equation: EC50 of standard/EC50 of test compound×100. The standards for the PR and GR assays were unlabeled progesterone and dexamethasone, respectively. The results of these experiments are summarized in Table 1, as a ratio of the relative binding affinities of each compound for the rbPR and rbGR receptors (rbPR/rbGR).

[3] = Urinary progesterone levels (luteal phase) in cynomolgus monkeys; type: in vivo, Cynomolgus monkeys (Macaca fascicularis); conditions: n=14 per group; CDB-4124 or RU-486 oral 1.0 mg/kg/day for 36 weeks; Lupron IM once per month
Description: Cynomolgus monkeys (Macaca fascicularis) (n=14) were treated orally for 36 weeks with CDB-4124 or RU-486 at 1.0 mg/kg/day or with placebo (control). Another group (n=14) received Lupron® IM once per month. Urinary progesterone levels were measured for each animal for one month during the middle of the study (weeks 14-17) and for the last month of the study (weeks 33-36).

[4] = Estrogenic, androgenic, anti-estrogenic and anti-androgenic activities
[5] = test system: progesterone-induced endometrial glandular proliferation in rabbit uterus; test: anti-McGinty and anti-Clauberg assays in the rabbit uterus; type: in vivo
Text: Also given in Table 1 are the relative biological activities of the same compounds in the rabbit uterus by the anti-McGinty and anti-Clauberg assays. Compound CDB-2914 (listed at the end of the Table) was used as the control or reference compound (rabbit Biological Activity=1.00) for these experiments because results of experiments using CDB-2914 have been published before (Hild-Petito et al., 1996; Passaro et al., 1997; Reel et al., 1998; Lamer et al., 2000). For the anti-McGinty test, immature female rabbits received a subcutaneous injection of 5 μg estradiol in 10% ethanol/sesame oil daily for 6 consecutive days. On day 7, animals underwent sterile abdominal surgery to ligate a 3-4 cm segment of both uterine horns. The test compound in appropriate solvent was injected intraluminally into the ligated segment of one uterine horn and vehicle alone into the other. A stimulating dose of progesterone (267 μg/day) was administered subcutaneously to each rabbit daily for the next three days to induce endometrial proliferation. All animals were sacrificed at day 10 for removal of the uterus where a segment central to the ligatures was removed and fixed in 10% neutral buffered formalin and submitted for histological processing. Five micron sections stained with hematoxylin and cosin were evaluated microscopically for the degree of endometrial glandular proliferation. The percent inhibition of endometrial proliferation for each rabbit was calculated and the mean of the group of five animals recorded. For the Anti-Clauberg test, immature female rabbits received a subcutaneous injection of 5 μg estradiol in 10% ethanol/sesame oil daily for 6 consecutive days. On day 7, animals received progesterone by subcutaneous injection (160 μg/day) and the experimental compound in appropriate vehicle orally or subcutaneously for five consecutive days. One group of rabbits received progesterone only. Twenty-four hours after the last dose, all animals were sacrificed for removal of the uterus which was cleaned of all fat and connective tissue, weighed to the nearest 0.2 mg and placed in 10% neutral buffered formalin for subsequent histological processing. Five micron sections stained with hematoxylin and eosin were evaluated microscopically for the degree of endometrial glandular proliferation. The percent inhibition of endometrial proliferation at each dose level of the test compound was derived by comparison with progesterone-stimulated animals alone. The data presented in Table 1 (rabbit Biol. Act.) reflects the average of the results obtained for each compound by the anti-McGinty and anti-Clauberg assays relative to CDB-2914.

[6] = Six month endometriosis study: estrogen concentrations and biomarkers of bone resorption; conditions: women
Description: Thirty-nine pre-menopausal adult women diagnosed with endometriosis were the subject of a six month study of Proellex™ (CDB-4124) in the treatment of endometriosis. The study included three dose levels of CDB-4124 as well as a positive control arm. The positive control was Lucrin®, a GnRH agonist, commonly used for the treatment of endometriosis (also known as Lupron®). CDB-4124 was administered in a double blinded fashion as a daily oral capsule at dosages of 12.5mg/day (n=2), 25mg/day (n=3) and 50mg/day (n=3). Another group (n=4) were injected with a slow release formulation of Lucrin® once per month as a positive control.

SMILES: COCC(=O)[C@@]1(OC(C)=O)CC[C@H]2[C@@H]3CCC4=CC(=O)CCC4=C3[C@@H](c3ccc(N(C)C)cc3)C[C@@]21C [CDB-4124, 21-methoxy-17α-acetoxy-11β-(4 N,N-dimethylaminophenyl)-19-norpregna-4,9-diene-3,20-dione]
- differences in serum corticosterone between groups [1]: No differences
- rbPR/rbGR [2]: 1.58
- Decrease in luteal phase progesterone (number of animals) [3]: 8
- No decrease in luteal phase progesterone (number of animals) [3]: 6
- estrogenic, androgenic, anti-estrogenic, and anti-androgenic activities [4]: lack estrogenic, androgenic, anti-estrogenic, and anti-androgenic activities
- rabbit Biol. Act. ([5]; average of anti-McGinty and anti-Clauberg results relative to CDB-2914 (=1.00)): 3.60
- antiprogestin activity in the rabbit uterus ([5]; in comparison to RU 486 and CDB-2914): strong antiprogestin activity
- estrogen concentrations (mean) ([6]; all doses of CDB-4124 (12.5, 25, 50 mg/day)): > 40 pg/mL
- biomarkers of bone resorption compared with baseline ([6]; three and six months of treatment): no significant changes
